Measured values as given in patent publication US20100093642A1, “NOVEL POLYPEPTIDES” (priority 2006, published 2010).
pIC50: −log10 of the molar value. ≈ marks a conversion by molar mass, not a printed value. Where two headings read alike, the source gives them in different places. Residues, ends and D or L forms follow the SMILES beside them. No end group written: not given here.

Assays:
[1] = tested on: Botrytis cinerea 101; conditions: 48 h
How it was run: (§1)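 Broth microdilution in half-strength potato dextrose broth, final 2×10^5 spores per ml, peptides in two-fold dilutions from 50 μM to 0.1 μM final. Incubated in the dark without shaking at 25° C. (37° C. for C. albicans) for 48 h; MIC is lowest concentration giving 50% inhibition of visible growth, scored microscopically.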

[2] = tested on: Saccharomyces cerevisiae; conditions: 48 h
How it was run: as §1

[3] = tested on: Candida albicans (ATCC 10231)
How it was run: as §1

[4] = tested on: murine colon carcinoma cell line CT26; assay type: cell-based; conditions: 4 h
Description: The cytotoxic effects of the peptides on different human tumour cells were measured using the MTT colorimetric assay (Mosmann, 1983). MIT (3-(4-5-dimethylthiazol-2-yl)-2,5-diphenyl tetrazolium bromide) is a soluble tetrazolium salt yielding a yellow solution when prepared in media or salt solutions lacking phenol red. Dissolved MIT is converted to an insoluble purple formazan by cleavage of the tetrazolium ring by dehydrogenase enzymes. This water insoluble formazan can be solubilized using isopropanol or other solvents and the dissolved material is measured spectrophotometrically. The absorbance was measured as a function of concentration of converted dye. The conversion of the soluble dye to the insoluble purple formazan is utilized in assays for measurement of cell proliferation. […] We used this assay to measure the degree of cell death caused by the peptides.
CT26 and A20 were maintained in RPMI-1640 medium supplemented with 10% heat inactivated FBS and 1% L-glutamine in a humidified atmosphere of 5% CO2 at 37° C. The human embryonic fibroblast cell line, MRC-5, was cultured as a monolayer in MEM medium, under the same conditions as described for the tumour cell lines. CT26 and MRC-5 cells to be used in the assay were grown to a minimum of 75% confluency, trypsinated and split to single cell suspension, counted and centrifuged at 1500 rpm for 7 min. The cell pellet was resuspended to a concentration of 1-2×10^5 cells/ml in RPMI-1640 medium without FBS and L-glutamine-L-alanine (assay-medium). The A20 cells were grown in suspension and adjusted to a concentration of 6×10^5 cells/ml in assay medium. All cell lines were routinely tested for mycoplasma infection using a PCR-based mycoplasma detection kit (MycoSensor PCR Assay Kit, Stratagene), following the supplier's instructions. All cell lines were mycoplasma free.
The cytotoxicity was measured using the MTT method (Mosmann, 1983), with minor modifications. The adherent cells (CT26 and MRC-5) were applied in 96-well culture plates in a volume of 100 μl assay medium and incubated at 37° C. for 24 hours. The A20 cells were applied to the microtiter plates just prior to testing. The medium was removed and the cells were treated with 100 μl of peptide solution (concentrations ranging from 0 to 400 μg/ml), diluted in serum-free medium, and the plates were incubated at 37° C. for 4 hours. Cells treated with Triton X-100 (1%) were used as positive control (100% killing) whereas cells plus medium only were used as negative control. Following the incubation period, 10 and 20 μl MTT (5 mg/ml, dissolved in PBS) were added to each well in the adherent cells (CT26 and MRC-5) and the A20 cells, respectively. After further incubation for 2 hours, a volume of 70 μl of the supernatant was removed and 100 μl acid alcohol (0.04 M HCl in isopropanol) added to each well in the adherent cell lines. For the cells grown in suspension (A20), a volume of 130 μl of the supernatant was removed and 100 μl acid alcohol was added. The plates were placed on a shaker for 1 hour at room temperature and read spectrophotometrically at 590 nm in a microtiter plate reader (Thermomax Molecular devices, New Jersey, USA). Cell survival (%, averaging at least 2 parallels) and IC50 values were estimated as described above.

[5] = tested on: Pseudomonas aeruginosa; assay type: cell-based
How it was run: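 Peptide fractions were incubated with actively growing bacteria in Mueller Hinton medium at a starting concentration of 3×10^4 cells per ml. Growth was monitored continuously in a Bioscreen C reader; polymyxin B served as reference.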

[6] = yeast, more than 50% inhibition of visible growth
[7] = yeast, more than 50% inhibition of visible growth, 48 h, 37° C.

Compound	Minimal inhibitory concentration (MIC), Botrytis cinerea [1] [µM]	Minimal inhibitory concentration (MIC), Saccharomyces cerevisiae [2] [µM]	Minimal inhibitory concentration (MIC), Candida albicans ([3]; ATCC 10231, 48 h) [µM]	pIC50 [4]	Minimal inhibitory concentration, P. aeruginosa [5] [µM]	Minimal inhibitory concentration (MIC), Saccharomyces cerevisiae [2, 6] [µM]	Minimal inhibitory concentration (MIC), Candida albicans [3, 7] [µM]
CC[C@H](C)[C@H](NC(=O)CNC(=O)[C@H](CO)NC(=O)[C@H](CCCCN)NC(=O)[C@@H](NC(=O)[C@H](C)NC(=O)[C@H](Cc1c[nH]cn1)NC(=O)[C@H](CO)NC(=O)[C@@H](NC(=O)[C@H](CCCCN)NC(=O)[C@H](Cc1c[nH]cn1)NC(=O)[C@H](Cc1ccccc1)NC(=O)[C@@H](NC(=O)[C@H](CCCCN)NC(=O)[C@H](CCCCN)NC(=O)[C@H](Cc1ccccc1)NC(=O)C(Cc1c[nH]c2ccc(Br)cc12)NC(=O)CN)[C@@H](C)O)C(C)C)C(C)C)C(=O)N[C@@H](Cc1c[nH]cn1)C(=O)N[C@@H](C)C(=O)O (stereo partly shown) [P17 HC-Br (1-20)] (HELM PEPTIDE1{G.[O=C(C(Cc1c[nH]c2ccc(Br)cc12)N[*:1])[*:2]].F.K.K.T.F.H.K.V.S.H.A.V.K.S.G.I.H.A}$$$$V2.0; N-terminus and C-terminus assumed)	50 (≈ 117 µg/mL)	12.5 (≈ 29.3 µg/mL)	6.25 (≈ 14.7 µg/mL)	4.22	6.25 (≈ 14.7 µg/mL)		
CC[C@H](C)[C@H](NC(=O)CNC(=O)[C@H](CO)NC(=O)[C@H](CCCCN)NC(=O)[C@@H](NC(=O)[C@H](C)NC(=O)[C@H](Cc1c[nH]cn1)NC(=O)[C@H](CO)NC(=O)[C@@H](NC(=O)[C@H](CCCCN)NC(=O)[C@H](Cc1c[nH]cn1)NC(=O)[C@H](Cc1ccccc1)NC(=O)[C@@H](NC(=O)[C@H](CCCCN)NC(=O)[C@H](CCCCN)NC(=O)[C@H](Cc1ccccc1)NC(=O)C(Cc1c[nH]c2ccc(Br)cc12)NC(=O)CN)[C@@H](C)O)C(C)C)C(C)C)C(=O)N[C@@H](Cc1c[nH]cn1)C(=O)N[C@@H](C)C(=O)NCC(=O)N[C@@H](CCC(N)=O)C(=O)N[C@@H](CCCNC(=N)N)C(=O)NCC(=O)N[C@@H](CS)C(=O)N[C@@H](CO)C(=O)N[C@@H](C)C(=O)N[C@@H](CC(C)C)C(=O)NCC(=O)N[C@@H](Cc1ccccc1)C(=O)O (stereo partly shown) [P17 HC-Br] (HELM PEPTIDE1{G.[O=C(C(Cc1c[nH]c2ccc(Br)cc12)N[*:1])[*:2]].F.K.K.T.F.H.K.V.S.H.A.V.K.S.G.I.H.A.G.Q.R.G.C.S.A.L.G.F}$$$$V2.0)	25 (≈ 83 µg/mL)			4.48	3.12 (≈ 10.4 µg/mL)	6.25 (≈ 20.8 µg/mL)	6.25 (≈ 20.8 µg/mL)
GWFKKTFHKVSHAVKSGIHA [P17 HC (1-20)]	100	12.5	6.25		6.25		
GWFKKTFHKVSHAVKSGIHAGQRGCSALGF [P17 HC]	50			4.69	3.12	6.25	6.25
